Reference: US6294580A, “Substituted 4-hydroxy-phenylalcanoic acid derivatives with agonist activity to PPAR-gamma” (Glaxo Wellcome Inc., priority 1996, dated 2001)
pEC50, pKi: −log10 of the molar value. Counter-ions that a name gives are not always drawn. Like-named read-outs stand apart in the source and are kept apart here.

Legend:
PPARg = test: PPARgamma Transient Cotransfection Assay; type: cell-based
hPPARgamma = biological target: T1, hPPARgamma (Homo sapiens, UniProt P37231); test: hPPARgamma Ligand Binding Assay; conditions: competition with [3H]-BRL 49,653, room temperature 2 hrs
T1 construct: 10x-histidine tag (N); made in house; host or cells: E. coli
T1 sequence (P37231 195-475 isoform P37231-2): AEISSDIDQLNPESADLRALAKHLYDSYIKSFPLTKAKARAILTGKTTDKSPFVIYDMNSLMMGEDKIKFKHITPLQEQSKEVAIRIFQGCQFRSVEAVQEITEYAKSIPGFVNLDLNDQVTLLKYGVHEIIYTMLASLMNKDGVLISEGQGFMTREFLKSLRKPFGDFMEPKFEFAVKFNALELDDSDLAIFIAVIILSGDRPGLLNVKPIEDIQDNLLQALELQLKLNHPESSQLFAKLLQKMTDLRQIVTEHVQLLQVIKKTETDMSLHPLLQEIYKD
Method: 2. hPPARgamma Ligand Binding Assay: The PPAR-gamma ligand binding domain (amino acids 195-475) was expressed with an N-terminal 10×-histidinetag in E. coli cells. The cells were lysed and receptor was purified by means of the epitope tag. The stock solution of protein was diluted to 200 nM in assay buffer (50 mM Tris, 50 mM KCl, pH 8 20 mM CHAPS, 2 mM EDTA 10 mM DTT (Fresh)) just before use.
Test compounds were prepared as 6 mM stock solutions in DMSO. […] The right-most column of wells was used for controls. […] Plates were incubated at room temperature for 2 hrs, and then cooled on ice for 30 minutes. 50 uL samples from each well of a single test plate were simultaneously loaded onto an equilibrated AGTC 96 well gel filtration block (Advanced Genetics Technology Corp.) using a Zymak Rapidplate automated pipettor. The block was placed on top of a clean microtiter plate and centrifuged @1,100×g for 4 min. 200 uL of scintillation fluid was added to each well, the plates were sealed and allowed to equilibrate for at least 4 hours before counting in a Wallac 1250 Microbeta counter.
Ki's were determined from a nonlinear least squares fit of the data to a simple competitive binding model.

[1] = CAT reporter, read-out: PPARg EC50
[2] = read-out: PPARg EC50, CAT reporter

Row | Structure (SMILES) | pEC50 (PPARg; [1]) | pKi (hPPARgamma; PPARg Ki) | other results
1 | O=C(c1ccccc1)c1ccccc1NC(Cc1ccc(OC2CCN(c3nc4ccccc4o3)C2)cc1)C(=O)O (stereo not drawn) [Example 21, 3-[4-(1-Benzoxazol-2-yl-pyrrolidin-3-yloxy)-phenyl]-2-(2-benzoyl-phenylamino)-propionic acid] | 6.82 | 6.28 | 
2 | CN(CCOc1ccc(CC(Nc2ccccc2C(=O)c2cccc(O)c2)C(=O)O)cc1)c1nc2ccccc2o1 (stereo not drawn) [Example 92, 3-{4-[2-(benzoxazol-2-yl-methyl-amino)-ethoxy]-phenyl}-2-[2-(3-hydroxy-benzoyl)-phenylamino]-propionic acid] | 6.40 | 7.70 | 
3 | O=C(C1=C(N[C@@H](Cc2ccc(OCc3ccccc3)cc2)C(=O)O)CCCC1)c1ccccc1 [Example 3, 2(S)-(2-Benzoyl-cyclohex-1-enylamino)-3-(4-benzyloxy-phenyl)-propionic acid dicyclohexylamine salt] |  |  | PPARg Fold. Act. (PPARg; CAT reporter): 3
4 | Cc1oc(-c2ccccc2)nc1CCOc1ccc(C[C@H](Nc2ccccc2C(=O)NCCCN)C(=O)O)cc1 [Example 90, 2-(S)-(1-carboxy-2-{4-{2-(5-methyl-2-phenyl-oxazol-4-yl)-ethoxy]-phenyl}-ethylamino)-benzoic acid 3-aminopropyl amide hydrochloride] |  | 5.52 | 
5 | COC(=O)c1ccccc1N[C@@H](Cc1ccc(OCCc2nc(N3CCN(C)CC3)sc2C)cc1)C(=O)O [Example 105] | 7.46 |  | pKi (hPPARgamma; read-out: PPARg Ki): 6.85
6 | COC(=O)c1ccccc1N[C@@H](Cc1ccc(OCCc2nc(-c3ccccc3)oc2C)cc1)C(=O)O [Example 88, 2-(S)-(1-carboxy-2-{4-{2-(5-methyl-2-phenyl-oxazol-4-yl)-ethoxy]-phenyl}-ethylamino)-benzoic acid methyl ester] |  |  | pEC50 (PPARg; [2]): 9.30
7 | Cc1oc(-c2ccccc2)nc1CCOc1ccc(CC(Nc2ccccc2C(=O)C2CCCCC2)C(=O)O)cc1 (single isomer, unassigned) [Example 53, 2-(2-Cyclohexanecarbonyl-phenylamino)-3-{4-[2-(5-methyl-2-phenyl-oxazol-4-yl)-ethoxy]-phenyl}-propionic acid] | 7.60 | 7.15 | 
8 | Cc1oc(-c2ccccc2)nc1CCOc1ccc(CC(Nc2ccccc2C(=O)c2ccc(CN(C)C)cc2)C(=O)O)cc1 (stereo not drawn) [Example 81, 2-[2-(4-dimethylaminomethyl-benzoyl)-phenylamino]-3-{4-[2-(5-methyl-2-phenyl-oxazol-4-yl)-ethoxy]-phenyl}-propionic acid hydrochloride] | 6.40 | 6.89 | 
9 | COC(=O)[C@H](Cc1ccc(OCc2ccccc2)cc1)NC(C)=CC(=O)c1ccccc1 [Example 2, 3-(4-Benzyloxy-phenyl)-2(S)-(1-methyl-3-oxo-3-phenyl-propenylamino)-propionic acid methyl ester] | 7.00 | 6.00 | PPARg Fold. Act. (PPARg; CAT reporter): 23
10 | CN(CCOc1ccc(CC(Nc2ccccc2C(=O)c2ccccc2)C(=O)O)cc1)c1nc2ccccc2o1 (stereo not drawn) [Example 15, 3-{4-[2-(benzoxazol-2-yl-methyl-amino)-ethoxy]-phenyl}-2-(2-benzoyl-phenylamino)-propionic acid] | 9.00 | 7.40 | 
11 | Cc1nnsc1-c1nc(CCOc2ccc(C[C@H](Nc3ccccc3C(=O)c3ccccc3)C(=O)O)cc2)c(C)s1 [Example 41, 2(S)-(2-benzoyl-phenylamino)-3-(4-{2-[5-methyl-2-(4-methyl[1,2,3]thiadiazol-5-yl)-thiazol-4-yl]ethoxy}-phenyl)-propionic acid] | 8.30 | 7.15 | 
12 | Cc1oc(-c2ccccc2)nc1CCOc1ccc(CC(Nc2ccccc2C(=O)c2ccc(CN)cc2)C(=O)O)cc1 (stereo not drawn) [Example 82, 2-[2-(4-aminomethyl-benzoyl)-phenylamino]-3-{4-[2-(6-methyl-2-phenyl-oxazol-4-yl)-ethoxy]-phenyl}-propionic acid hydrochloride] | 7.60 | 7.19 | 
13 | CN(CCOc1ccc(CC(Nc2sccc2C(=O)c2ccccc2)C(=O)O)cc1)c1nc2ccccc2o1 (stereo not drawn) [Example 52, 3-{4-[2-(Benzoxazol-2-yl-methyl-amino)-ethoxy]-phenyl}-2-(3-benzoyl-thiophene-2-ylamino)-propionic acid] | 7.10 | 7.00 | 
14 | COC(=O)Nc1cccc(C(=O)c2ccccc2NC(Cc2ccc(OCCc3nc(-c4ccccc4)oc3C)cc2)C(=O)O)c1 (stereo not drawn) [Example 96, 2-[2-(3-methoxycarbonylamino-benzoyl)-phenylamino]-3-{4-[2-(5-methyl-2-phenyl-oxazol-4-yl)-ethoxy]-phenyl}-propionic acid] | 6.52 | 6.55 | 
15 | O=C(c1ccccc1)c1ccccc1NC(Cc1ccc(OCc2ccccc2)cc1)C(=O)O (stereo not drawn) [Example 4, 2-(2-benzoylphenylamino)-3-(4-benzyloxyphenyl) propanoic acid] | 5.52 | 6.00 | PPARg Fold. Act. (PPARg; CAT reporter): 20
16 | CN(CCOc1ccc(C[C@H](NC(=O)c2coc3ccccc3c2=O)C(=O)O)cc1)c1nc2ccccc2o1 [Example 28, 3-{4-[2-(Benzoxazol-2-yl-methyl-amino)-ethoxy]-phenyl}-2(S)-[(4-oxo-4H-chromene-3-carbonyl)-amino]-propionic acid] | 7.60 |  | 
17 | COC(=O)[C@H](Cc1ccc(OCCc2nc(N3CCN(C)CC3)sc2C)cc1)Nc1ccccc1C(=O)c1ccccc1 [Example 42] | 8.30 |  | 
18 | COC(=O)C(Cc1ccc(OCc2ccccc2)cc1)Nc1ccccc1C(=O)Nc1ccccc1 (racemic) [Example 6, 3-(4-Benzyloxy-phenyl)-2-(phenylcarbamoyl-phenylamino)-propionic acid methyl ester] |  |  | PPARg Fold. Act. (PPARg; CAT reporter): 4
19 | COC(=O)C(Cc1ccc(OCc2ccccc2)cc1)Nc1ccccc1C(=O)N1CCCCC1 (stereo not drawn) [Example 7, 3-(4-Benzyloxy-phenyl)-2-[2-(piperidine-1-carbonyl)-phenylamino]-propionic acid methyl ester] |  |  | PPARg Fold. Act. (PPARg; CAT reporter): 5
20 | CCN(CCOc1ccc(C[C@H](Nc2ccccc2C(=O)OC)C(=O)O)cc1)c1cccc(C)c1 [Example 71] | 6.82 |  | 
21 | Cc1oc(-c2ccccc2)nc1CCOc1ccc(CC(Nc2ccccc2C(=O)c2cccc(CO)c2)C(=O)O)cc1 (stereo not drawn) [Example 85, 2-[2-(3-hydroxymethyl-benzoyl)-phenylamino]-3-{4-[2-(5-methyl-2-phenyl-oxazol-4-yl)-ethoxy]-phenyl}-propionic acid] | 7.70 |  | 
22 | Cc1sc(N2CCN(S(C)(=O)=O)CC2)nc1CCOc1ccc(C[C@H](Nc2ccccc2C(=O)c2ccccc2)C(=O)O)cc1 [Example 103, 2(S)-(2-benzoyl-phenylamino)-3-(4-{2-[5-methyl-2-(4-methylsulfonyl-piperazin-1-yl)-thiazol-4-yl]-ethoxy}-phenyl)-propionic acid] |  |  | pEC50 (PPARg; [2]): 6.74
23 | Cc1oc(-c2ccccc2)nc1CCOc1ccc(CC(Nc2ccccc2C(=O)c2cccc(C(=O)O)c2)C(=O)O)cc1 (stereo not drawn) [Example 84] | 7.26 |  | 
24 | CN(CCOc1ccc(CC(Nc2ccccc2C(=O)c2ccccc2)C(=O)O)cc1)c1ccccn1 (stereo not drawn) [Example 11, 2-(2-Benzoyl-phenylamino)-3-{4-[2-(methyl-pyridin-2-yl-amino)-ethoxy]-phenyl}-propionic acid] |  |  | pEC50 (PPARg; [2]): 8.00
25 | CNC(=O)c1ccccc1N[C@@H](Cc1ccc(OCCc2nc(-c3ccccc3)oc2C)cc1)C(=O)O [Example 91, 2-(S)-(1-carboxy-2-{4-{2-(5-methyl-2-phenyl-oxazol-4-yl)ethoxy]-phenyl}-ethylamino)-benzoic acid methyl amide] | 7.70 |  | 
